Experimental data taken from patent US20140081017A1, “Histone Deacetylase Inhibitors for Enhancing Activity of Antifungal Agents” (METHYLGENE INC., priority 2012, published 2014).
In brackets after ≈: the same amount, converted by molar mass. Where two headings read alike, the source gives them in different places.

Assays:
Candida albicans = assay: Minimal Inhibitory Concentration (MIC) assay, broth microdilution per CLSI; format: cell-based; conditions: Candida albicans, read-out: Minimum Inhibitory Concentrations against Yeast Isolates, Candida albicans;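 note: two read times 24 hr and 48 hr of incubation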
Summary of the method: (§1)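 Steps: overnight yeast growth on Sabouraud dextrose agar at 35° C; 0.5 McFarland saline suspension diluted 1:100 in RPMI (0.165 M MOPS, pH 7.0); inoculation into twofold compound dilutions; incubation 24-48 hr at 35° C; MIC scored as lowest concentration without visible growth.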

Candida glabrata = assay: as above; format: cell-based; conditions: Nakaseomyces glabratus, read-out: Minimum Inhibitory Concentrations against Yeast Isolates, Candida glabrata;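 note: two read times 24 hr and 48 hr of incubation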
Summary of the method: as §1

Candida parapsilosis = assay: as above; format: cell-based; conditions: Lodderomyces parapsilosis, read-out: Minimum Inhibitory Concentrations against Yeast Isolates, Candida parapsilosis;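 note: two read times 24 hr and 48 hr of incubation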
Summary of the method: as §1

C. glabrata = assay: Checkerboard FIC assay in combination with fluconazole (MIC alone and in combination, FICI); format: cell-based, Candida glabrata; conditions: for FICI of combination resulting in fluconazole MIC of: 2 ug/mL / FICI of combination resulting in fluconazole MIC of: 4 ug/mL / FICI of combination resulting in fluconazole MIC of: 8 ug/mL: FICI calculated using a fluconazole MIC of 16 μg/mL; for FICI of combination resulting in fluconazole MIC of: 2 ug/mL (value in parenthesis) / FICI of combination resulting in fluconazole MIC of: 4 ug/mL (value in parenthesis) / FICI of combination resulting in fluconazole MIC of: 8 ug/mL (value in parenthesis): FICI using a fluconazole MIC of 128 μg/mL; for MIC: Nakaseomyces glabratus; for Multiple of compound MIC to synergize fluconazole MIC to 2 ug/mL / Multiple of compound MIC to synergize fluconazole MIC to 4 ug/mL / Multiple of compound MIC to synergize fluconazole MIC to 8 ug/mL: concentration in combination as multiple of the compound's MIC alone; for Multiple of compound MIC to synergize fluconazole MIC to 2 ug/mL: fluconazole MIC 2 ug/mL; for Multiple of compound MIC to synergize fluconazole MIC to 4 ug/mL: fluconazole MIC 4 ug/mL; for Multiple of compound MIC to synergize fluconazole MIC to 8 ug/mL: fluconazole MIC 8 ug/mL; for Concentration of Methylgene compound to synergize fluconazole MIC to 2 ug/mL / Concentration of Methylgene compound to synergize fluconazole MIC to 4 ug/mL / Concentration of Methylgene compound to synergize fluconazole MIC to 8 ug/mL: in combination with fluconazole; for Concentration of Methylgene compound to synergize fluconazole MIC to 2 ug/mL: fluconazole MIC lowered to 2 ug/mL; for Concentration of Methylgene compound to synergize fluconazole MIC to 4 ug/mL: fluconazole MIC lowered to 4 ug/mL; for Concentration of Methylgene compound to synergize fluconazole MIC to 8 ug/mL: fluconazole MIC lowered to 8 ug/mL
Summary of the method: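 A fluconazole synergy checkerboard was run against C. glabrata in MOPS-buffered RPMI (pH 7.0) for about 48 h at 35 °C. Each agent was diluted 2-fold, with one row and one column holding each agent alone for MIC determination. FICI was calculated from these MICs, using a 0.5 McFarland inoculum diluted 1:100 per CLSI.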

[1] = 24 hr reading (first value of cell 24 hr/48 hr)
[2] = 48 hr reading (second value of cell 24 hr/48 hr)
[3] = MIC of the example compound alone against C. glabrata in the checkerboard assay, approximately 48 hr, read-out: Methylgene MIC
[4] = test compound alone, C. glabrata, approx. 48 hr at 35° C., read-out: Compound MIC

Row | Compound | MIC (Candida albicans; [1]) | MIC (Candida albicans; [2]) | MIC (Candida glabrata; [1]) | MIC (Candida glabrata; [2]) | MIC (Candida parapsilosis; [1]) | MIC (Candida parapsilosis; [2]) | FICI of combination resulting in fluconazole MIC of: 2 ug/mL (C. glabrata; C. glabrata) | FICI of combination resulting in fluconazole MIC of: 4 ug/mL (C. glabrata; C. glabrata) | FICI of combination resulting in fluconazole MIC of: 8 ug/mL (C. glabrata; C. glabrata) | FICI of combination resulting in fluconazole MIC of: 2 ug/mL (value in parenthesis) (C. glabrata; C. glabrata) | FICI of combination resulting in fluconazole MIC of: 4 ug/mL (value in parenthesis) (C. glabrata; C. glabrata) | FICI of combination resulting in fluconazole MIC of: 8 ug/mL (value in parenthesis) (C. glabrata; C. glabrata) | MIC (C. glabrata; [3]) | MIC (C. glabrata; [4]) | Multiple of compound MIC to synergize fluconazole MIC to 2 ug/mL (C. glabrata) | Multiple of compound MIC to synergize fluconazole MIC to 4 ug/mL (C. glabrata) | Multiple of compound MIC to synergize fluconazole MIC to 8 ug/mL (C. glabrata) | Concentration of Methylgene compound to synergize fluconazole MIC to 2 ug/mL (C. glabrata; C. glabrata) | Concentration of Methylgene compound to synergize fluconazole MIC to 4 ug/mL (C. glabrata; C. glabrata) | Concentration of Methylgene compound to synergize fluconazole MIC to 8 ug/mL (C. glabrata; C. glabrata)
1 | CC(=O)Nc1cccc(CCCCc2ccc(CC(=O)NO)cc2)c1 [Example 42, 2-(4-(4-(3-acetamidophenyl)butyl)phenyl)-N-hydroxyacetamide] | > 32 µg/mL | > 32 µg/mL | 8 µg/mL (≈ 23.5 µM) | 16 µg/mL (≈ 47 µM) | > 32 µg/mL | > 32 µg/mL | 0.313 | 0.375 | 0.375 | 0.266 | 0.281 | 0.188 | 16 µg/mL | 16 µg/mL | (¼x) | (¼x) | (⅛x) | 4 µg/mL | 4 µg/mL | 2 µg/mL
2 | O=C(Cc1ccc(CCCCc2ccc(NC(=O)NCCN3CCOCC3)cc2)cc1)NO [Example 47, N-hydroxy-2-(4-(4-(4-(3-(2-morpholinoethyl)ureido)phenyl)butyl)phenyl)acetamide] | > 32 µg/mL | > 32 µg/mL | 4 µg/mL (≈ 8.8 µM) | 16 µg/mL (≈ 35.2 µM) | > 32 µg/mL | > 32 µg/mL | 0.563 | 0.375 | 0.500 | 0.516 | 0.281 | 0.313 | 16 µg/mL | 16 µg/mL | (½x) | (¼x) | (¼x) | 8 µg/mL | 4 µg/mL | 4 µg/mL
3 | O=C(Cc1ccc(CCCCc2ccc(C(=O)N3CCN(C/C=C/c4ccccc4)CC3)cc2)cc1)NO [Example 20, (E)-2-(4-(4-(4-(4-cinnamylpiperazine-1-carbonyl)phenyl)butyl)phenyl)-N-hydroxyacetamide] | > 8 µg/mL | > 8 µg/mL | 2 µg/mL (≈ 3.91 µM) | 2 µg/mL (≈ 3.91 µM) | > 8 µg/mL | > 8 µg/mL | 0.563 | 0.375 | 0.500 | 0.516 | 0.281 | 0.313 | 1 µg/mL | 1 µg/mL | (½x) | (¼x) | (¼x) | 0.5 µg/mL | 0.25 µg/mL | 0.25 µg/mL
4 | CN1CCC(C(=O)Nc2cccc(CCCCc3ccc(CC(=O)NO)cc3)c2)CC1 [Example 43, N-(3-(4-(4-(2-(hydroxyamino)-2-oxoethyl)phenyl)butyl)phenyl)-1-methylpiperidine-4-carboxamide] | > 64 µg/mL | > 64 µg/mL | 16 µg/mL (≈ 37.8 µM) | 64 µg/mL (≈ 151 µM) | > 64 µg/mL | > 64 µg/mL | 0.313 | 0.250 | 0.313 | 0.266 | 0.156 | 0.125 | > 16 µg/mL | > 16 µg/mL | – | – | – | 8 µg/mL | 4 µg/mL | 2 µg/mL

The remaining compounds from weak to strong by MIC (Candida albicans; [1]), led by results:

Row | MIC (Candida albicans; [1]) | MIC (Candida albicans; [2]) | MIC (Candida glabrata; [1]) | MIC (Candida glabrata; [2]) | MIC (Candida parapsilosis; [1]) | MIC (Candida parapsilosis; [2]) | FICI of combination resulting in fluconazole MIC of: 2 ug/mL (C. glabrata; C. glabrata) | FICI of combination resulting in fluconazole MIC of: 4 ug/mL (C. glabrata; C. glabrata) | FICI of combination resulting in fluconazole MIC of: 8 ug/mL (C. glabrata; C. glabrata) | FICI of combination resulting in fluconazole MIC of: 2 ug/mL (value in parenthesis) (C. glabrata; C. glabrata) | FICI of combination resulting in fluconazole MIC of: 4 ug/mL (value in parenthesis) (C. glabrata; C. glabrata) | FICI of combination resulting in fluconazole MIC of: 8 ug/mL (value in parenthesis) (C. glabrata; C. glabrata) | MIC (C. glabrata; [3]) | MIC (C. glabrata; [4]) | Multiple of compound MIC to synergize fluconazole MIC to 2 ug/mL (C. glabrata) | Multiple of compound MIC to synergize fluconazole MIC to 4 ug/mL (C. glabrata) | Multiple of compound MIC to synergize fluconazole MIC to 8 ug/mL (C. glabrata) | Concentration of Methylgene compound to synergize fluconazole MIC to 2 ug/mL (C. glabrata; C. glabrata) | Concentration of Methylgene compound to synergize fluconazole MIC to 4 ug/mL (C. glabrata; C. glabrata) | Concentration of Methylgene compound to synergize fluconazole MIC to 8 ug/mL (C. glabrata; C. glabrata) | Compound
5 | 32 µg/mL (≈ 110 µM) | 32 µg/mL (≈ 110 µM) | > 64 µg/mL | > 64 µg/mL | 32 µg/mL (≈ 110 µM) | 32 µg/mL (≈ 110 µM) | 0.625 | 0.500 | 0.625 | 0.516 | 0.281 | 0.188 | 8 µg/mL | 8 µg/mL | (½x) | (¼x) | (⅛x) | 4 µg/mL | 2 µg/mL | 1 µg/mL | O=C(Cc1csc(CCCCc2ccccc2)n1)NO [Example 1, N-hydroxy-2-(2-(4-phenylbutyl)thiazol-4-yl)acetamide]
6 | 16 µg/mL (≈ 48.9 µM) | > 64 µg/mL | 32 µg/mL (≈ 97.7 µM) | 64 µg/mL (≈ 195 µM) | 32 µg/mL (≈ 97.7 µM) | > 64 µg/mL | > 0.563 | > 0.625 | > 0.750 | > 0.516 | > 0.531 | > 0.563 | > 16 µg/mL | > 16 µg/mL | – | – | – | 16 µg/mL | 16 µg/mL | 16 µg/mL | O=C(Cc1ccc(CCCCc2ccc(C(=O)O)cc2)cc1)NO [Example 14, 4-(4-(4-(2-(hydroxyamino)-2-oxoethyl)phenyl)butyl)benzoic acid]
7 | 0.5 µg/mL (≈ 1.57 µM) | 0.5 µg/mL (≈ 1.57 µM) | 0.5 µg/mL (≈ 1.57 µM) | 0.5 µg/mL (≈ 1.57 µM) | 0.25 µg/mL (≈ 0.783 µM) | 0.5 µg/mL (≈ 1.57 µM) | 0.563 | 0.625 | 0.490 | 0.516 | 0.531 | 0.303 | 0.5 µg/mL | 0.5 µg/mL | (½x) | (½x) | (¼x) | 0.25 µg/mL | 0.25 µg/mL | 0.12 µg/mL | O=C(Cc1ccc(CCCCc2ccc(F)cc2F)cc1)NO [Example 3, 2-(4-(4-(2,4-difluorophenyl)butyl)phenyl)-N-hydroxyacetamide]
